Laboratory results as given in ChEMBL document CHEMBL2074151, “Molecular identification of a rat novel organic anion transporter moat1, which transports prostaglandin D(2), leukotriene C(4), and taurocholate” (Biochem Biophys Res Commun, 2000).

T1: Solute carrier organic anion transporter family member 2B1 (Rattus norvegicus, UniProt Q9JHI3)
T1 sequence (Q9JHI3 whole entry): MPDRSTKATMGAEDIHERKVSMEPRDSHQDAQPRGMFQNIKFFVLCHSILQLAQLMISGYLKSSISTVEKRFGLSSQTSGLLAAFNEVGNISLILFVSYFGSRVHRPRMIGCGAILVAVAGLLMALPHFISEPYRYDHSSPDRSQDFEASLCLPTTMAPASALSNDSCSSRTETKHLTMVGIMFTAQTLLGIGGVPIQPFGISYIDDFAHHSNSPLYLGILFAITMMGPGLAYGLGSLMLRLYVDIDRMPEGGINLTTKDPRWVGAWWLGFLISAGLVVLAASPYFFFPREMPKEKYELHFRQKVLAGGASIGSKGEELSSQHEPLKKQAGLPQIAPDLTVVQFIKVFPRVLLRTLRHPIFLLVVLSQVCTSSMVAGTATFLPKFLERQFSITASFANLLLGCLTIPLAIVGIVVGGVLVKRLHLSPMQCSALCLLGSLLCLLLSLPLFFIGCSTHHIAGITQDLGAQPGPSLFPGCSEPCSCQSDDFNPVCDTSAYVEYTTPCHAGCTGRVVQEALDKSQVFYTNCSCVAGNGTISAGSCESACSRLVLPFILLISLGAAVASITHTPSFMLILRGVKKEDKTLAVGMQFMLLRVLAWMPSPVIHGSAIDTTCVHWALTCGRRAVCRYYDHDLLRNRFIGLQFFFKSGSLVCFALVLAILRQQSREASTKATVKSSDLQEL


How the values were obtained:
[1] = target: T1, Solute carrier organic anion transporter family member 2B1; experiment: (§1) TP_TRANSPORTER: uptake in Xenopus laevis oocytes; assay type: functional, cell-based; conditions: oocyte
[2] = target: T1, Solute carrier organic anion transporter family member 2B1; experiment: TP_TRANSPORTER: inhibition of PGD2 uptake in Xenopus laevis oocytes; assay type: functional, cell-based, Oocyte
[3] = substrate: CCCCC[C@H](O)/C=C/[C@H]1C(=O)C[C@H](O)[C@@H]1C/C=C\CCCC(=O)O; experiment: as §1; assay type: functional, cell-based, Oocyte
[4] = substrate: CCCCC/C=C\C\C=C/C=C/C=C/[C@@H](SC[C@@H](NC(=O)CC[C@H](N)C(=O)O)C(=O)NCC(=O)O)[C@@H](O)CCCC(=O)O; experiment: as §1; assay type: functional, cell-based, Oocyte

| Molecule | Activity [1] | IC50 [2] | Km [3] | Km [4] |
| --- | --- | --- | --- | --- |
| CCCCC[C@H](O)/C=C/[C@H]1[C@H](O)CC(=O)[C@@H]1CCCCCCC(=O)O [ALPROSTADIL] | substrate [+] | 35.8 nM |  |  |
| CCCCC[C@H](O)/C=C/[C@H]1[C@H](O)CC(=O)[C@@H]1C/C=C\CCCC(=O)O [DINOPROSTONE] | substrate [+] |  |  |  |
| CCCCC[C@H](O)/C=C/[C@@H]1[C@@H](C/C=C\CCCC(=O)O)[C@@H](O)C[C@H]1O [DINOPROST] | is not a substrate [-] | 287 nM |  |  |
| CC#CCC(C)[C@H](O)/C=C/[C@@H]1[C@H]2C/C(=C/CCCC(=O)O)C[C@H]2C[C@H]1O (stereo not given in full) [ILOPROST] | substrate [+] |  |  |  |
| C[C@]12CC[C@H](OS(=O)(=O)O)CC1=CC[C@@H]1[C@@H]2CC[C@]2(C)C(=O)CC[C@@H]12 [PRASTERONE SULFURIC ACID] | is not a substrate [-] |  |  |  |
| CCCCC[C@H](O)/C=C/[C@H]1OC(O)C[C@H](O)[C@@H]1C/C=C\CCCC(=O)O (stereo not given in full) [THROMBOXANE B2] | substrate [+] |  |  |  |
| Solute carrier organic anion transporter family member 2B1 (Rattus norvegicus) (protein) MPDRSTKATMGAEDIHERKVSMEPRDSHQDAQPRGMFQNIKFFVLCHSILQLAQLMISGYLKSSISTVEKRFGLSSQTSGLLAAFNEVGNISLILFVSYFGSRVHRPRMIGCGAILVAVAGLLMALPHFISEPYRYDHSSPDRSQDFEASLCLPTTMAPASALSNDSCSSRTETKHLTMVGIMFTAQTLLGIGGVPIQPFGISYIDDFAHHSNSPLYLGILFAITMMGPGLAYGLGSLMLRLYVDIDRMPEGGINLTTKDPRWVGAWWLGFLISAGLVVLAASPYFFFPREMPKEKYELHFRQKVLAGGASIGSKGEELSSQHEPLKKQAGLPQIAPDLTVVQFIKVFPRVLLRTLRHPIFLLVVLSQVCTSSMVAGTATFLPKFLERQFSITASFANLLLGCLTIPLAIVGIVVGGVLVKRLHLSPMQCSALCLLGSLLCLLLSLPLFFIGCSTHHIAGITQDLGAQPGPSLFPGCSEPCSCQSDDFNPVCDTSAYVEYTTPCHAGCTGRVVQEALDKSQVFYTNCSCVAGNGTISAGSCESACSRLVLPFILLISLGAAVASITHTPSFMLILRGVKKEDKTLAVGMQFMLLRVLAWMPSPVIHGSAIDTTCVHWALTCGRRAVCRYYDHDLLRNRFIGLQFFFKSGSLVCFALVLAILRQQSREASTKATVKSSDLQEL |  |  | 0.0355 µM | 3.2 µM |
